Assay results taken from the supplement of paper PMC11208160.

assay: recombinant barcode read abundance after kanamycin selection (control-corrected) (log10(CPM+1)); higher = more efficient recombination; sequences stand for … in AGTGCAGAGAAAATCGGCCAGTTTTCTCTGCCTGCAGTCCGCATGCCGT…AGATTTATGCAGCGGACTGCCTTTCTCCCAAAGTGATAAACCGGACAGTATCATGGACCGGTTTTCCCGGTAATCCGTATTTGCAAGGTTGGTTTCACT; site = the 11-nt target
Procedure, shortened: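 Pooled E. coli screen pairing targets with IS621 bridge RNA target-binding loops. Each oligo (promoter, target, barcode, J23119-driven first 104 bridge RNA bases) was Gibson-cloned into a vector with the remaining 73 bp and T7-inducible recombinase, then co-electroporated with a donor plasmid. Two replicates each were plated on chloramphenicol/ampicillin LB agar (control) or chloramphenicol/ampicillin/kanamycin with 0.1 mM IPTG. Recombination efficiency is recombinant-junction barcode counts as CPM, averaged, control-corrected, reported as log10(CPM+1).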
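Further: IS621 recombinase and bridge RNA in Escherichia coli cells.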

“TCTTGGACTTGGGTTCTAACCTGTTGCTC (site TCTTGGACTCA)” and “TCTTGGACTTGGGTTCTAACCTGTTGCTC (site TCTTGGACTGA)” are within 0.2 log units of each other in “recombinant barcode read abundance (log10)” value: 0.153 for the first, 0.165 for the second.

“TCTTGGACTTGGGTTCTAACCTGTTGCTC (site TCTTGGACTTA)” and “TCTTGTCCTTGGGTTCTAACCTGTTGCGG (site TCTTGTCCTAC)” are within 0.2 log units of each other in “recombinant barcode read abundance (log10)” value: 0.0183 for the first, 0.0164 for the second.

First: TCTTGTCCTTGGGTTCTAACCTGTTGCGG (site TCTTGTCCTCC)
Second: TCTTGTCCTTGGGTTCTAACCTGTTGCGG (site TCTTGTCCTGC)
The “recombinant barcode read abundance (log10)” value of the first is higher: 0.526 for the first, 0.104 for the second.

Compared with “TCTTGTCCTTGGGTTCTAACCTGTTGCGG (site TCTTGTCCTTC)”, “TCTTTAGCTTGGGTTCTAACCTGTTGCAG (site CTAAGGTCTTA)” is higher in “recombinant barcode read abundance (log10)” value: 0.0135 for the first, 0.24 for the second.

“TCTTTAGCTTGGGTTCTAACCTGTTGCAG (site TCTTTAGCTCT)” and “TGAAACTCTTGGGTTCTAACCTGTTGCGG (site GTCGGTCCTGT)” are within 0.2 log units of each other in “recombinant barcode read abundance (log10)” value: 0.236 for the first, 0.27 for the second.

Going from “TGAAACTCTTGGGTTCTAACCTGTTGCGG (site TGAAACTCTCC)” to “TGAAAGACTTGGGTTCTAACCTGTTGCCG (site GACGGACCTAT)”, the “recombinant barcode read abundance (log10)” value falls from 1.16 to 0.475.

First: TGAAAGACTTGGGTTCTAACCTGTTGCCG (site TGAAAGACTCG)
Second: TGAAGGTCTTGGGTTCTAACCTGTTGCCT (site TGAAAGTCTAG)
The “recombinant barcode read abundance (log10)” value of the first is higher: 0.762 for the first, 0.213 for the second.

Compared with “TGAAGGTCTTGGGTTCTAACCTGTTGCCT (site TGAACGTCTAG)”, “TGAAGGTCTTGGGTTCTAACCTGTTGCCT (site TGAAGGTCTAG)” is higher in “recombinant barcode read abundance (log10)” value: 0.175 for the first, 0.485 for the second.

“TGAAGGTCTTGGGTTCTAACCTGTTGCCT (site TGAATGTCTAG)” and “TGACCTACTTGGGTTCTAACCTGTTGCCA (site CTCTACTCTAC)” are within 0.2 log units of each other in “recombinant barcode read abundance (log10)” value: 0.362 for the first, 0.242 for the second.

“TGACCTACTTGGGTTCTAACCTGTTGCCA (site TGACCTACTTG)” and “TGACTCTCTTGGGTTCTAACCTGTTGCCT (site TAACTCTCTAG)” are within 0.2 log units of each other in “recombinant barcode read abundance (log10)” value: 0.133 for the first, 0.163 for the second.

Compared with “TGACTCTCTTGGGTTCTAACCTGTTGCCT (site TCACTCTCTAG)”, “TGACTCTCTTGGGTTCTAACCTGTTGCCT (site TGACTCTCTAG)” is higher in “recombinant barcode read abundance (log10)” value: 0.172 for the first, 1.02 for the second.

“TGACTCTCTTGGGTTCTAACCTGTTGCCT (site TTACTCTCTAG)” and “TGAGAAGCTTGGGTTCTAACCTGTTGCCT (site TGACCAGCTAG)” are within 0.2 log units of each other in “recombinant barcode read abundance (log10)” value: 0.228 for the first, 0.299 for the second.

Compared with “TGAGAAGCTTGGGTTCTAACCTGTTGCCT (site TGAGAAGCTAG)”, “TGAGCACCTTGGGTTCTAACCTGTTGCCT (site AGAGGACCTAG)” is lower in “recombinant barcode read abundance (log10)” value: 1.1 for the first, 0.158 for the second.

First: TGAGCACCTTGGGTTCTAACCTGTTGCCT (site TGAGCACCTAG)
Second: TGAGGCACTTGGGTTCTAACCTGTTGCCT (site TGAGGATCTAG)
The “recombinant barcode read abundance (log10)” value of the first is higher: 1.74 for the first, 0.03 for the second.

Going from “TGAGGCACTTGGGTTCTAACCTGTTGCCT (site TGAGGCACTAG)” to “TGAGGGCCTTGGGTTCTAACCTGTTGCCT (site AGAGGTCCTAG)”, the “recombinant barcode read abundance (log10)” value falls from 0.474 to 0.186.

Compared with “TGAGGGCCTTGGGTTCTAACCTGTTGCCT (site TGAGGGCCTAG)”, “TGAGGGGCTTGGGTTCTAACCTGTTGCCT (site TGAGAGGCTAG)” is lower in “recombinant barcode read abundance (log10)” value: 1.26 for the first, 0.275 for the second.

Going from “TGAGGGGCTTGGGTTCTAACCTGTTGCCT (site TGAGCGGCTAG)” to “TGAGGGGCTTGGGTTCTAACCTGTTGCCT (site TGAGGGGCTAG)”, the “recombinant barcode read abundance (log10)” value rises from 0.242 to 1.24.

Going from “TGAGGGGCTTGGGTTCTAACCTGTTGCCT (site TGAGTGGCTAG)” to “TGAGGGTCTTGGGTTCTAACCTGTTGCTT (site AGAGGGTCTAA)”, the “recombinant barcode read abundance (log10)” value rises from 0.197 to 0.497.

“TGAGGGTCTTGGGTTCTAACCTGTTGCTT (site CGAGGGTCTAA)” and “TGAGGGTCTTGGGTTCTAACCTGTTGCTT (site GGAGGGTCTAA)” are within 0.2 log units of each other in “recombinant barcode read abundance (log10)” value: 0.136 for the first, 0.0368 for the second.

First: TGAGGGTCTTGGGTTCTAACCTGTTGCTT (site TGAGGGTCTAA)
Second: TGAGTCTCTTGGGTTCTAACCTGTTGCCA (site ACCCAGCCTCT)
The “recombinant barcode read abundance (log10)” value of the first is higher: 0.452 for the first, 0.0473 for the second.

Compared with “TGAGTCTCTTGGGTTCTAACCTGTTGCCA (site TGAGTCTCTTG)”, “TGAGTTCCTTGGGTTCTAACCTGTTGCTT (site TGAGTACCTAA)” is lower in “recombinant barcode read abundance (log10)” value: 1.47 for the first, 0.0626 for the second.

In the case of “TGAGTTCCTTGGGTTCTAACCTGTTGCTT (site TGAGTCCCTAA)”, the “recombinant barcode read abundance (log10)” value is reported as 0.0401.
